Test: mn = molality of the nth substance listed, in mol/kg
Conditions: 101.3 kPa, Liquid; for speed of sound: Sing-around technique in a fixed-path interferometer; for mass density: Vibrating tube method

N[C@@H](Cc1ccc(O)cc1)C(=O)O [3-(p-hydroxyphenyl)-L-alanine] + O
Conditions | mass density, 298.15 K [kg/m3] | mass density, 308.15 K [kg/m3] | mass density, 318.15 K [kg/m3] | speed of sound, 298.15 K [m/s] | speed of sound, 308.15 K [m/s] | speed of sound, 318.15 K [m/s]
m1 = 0.000125 | 997.061 | 994.051 | 990.231 | 1496.6 | 1519.6 | 1536.3
m1 = 0.00025 | 997.068 | 994.058 | 990.238 | 1496.8 | 1519.7 | 1536.5
m1 = 0.0005 | 997.082 | 994.072 | 990.251 | 1496.7 | 1519.8 | 1536.3
m1 = 0.001 | 997.112 | 994.101 | 990.278 | 1497.2 | 1519.7 | 1536.8
m1 = 0.00125 | 997.125 | 994.114 | 990.29 | 1496.8 | 1520.2 | 1536.4
m1 = 0.0015 | 997.138 | 994.126 | 990.301 | 1496.8 | 1519.8 | 1536.4
m1 = 0.002 | 997.168 | 994.152 | 990.318 | 1496.8 | 1519.8 | 1536.5

N[C@@H](CCC(=O)O)C(=O)O [L-glutamic acid] + O
Conditions | mass density, m1 = 0.01 [kg/m3] | mass density, m1 = 0.02 [kg/m3] | mass density, m1 = 0.03 [kg/m3] | mass density, m1 = 0.04 [kg/m3] | mass density, m1 = 0.05 [kg/m3] | speed of sound, m1 = 0.01 [m/s] | speed of sound, m1 = 0.02 [m/s] | speed of sound, m1 = 0.03 [m/s] | speed of sound, m1 = 0.04 [m/s] | speed of sound, m1 = 0.05 [m/s]
298.15 K | 997.642 | 998.213 | 998.786 | 999.352 | 999.936 | 1497.4 | 1498.1 | 1498.9 | 1499.6 | 1500.3
308.15 K | 994.598 | 995.178 | 995.742 | 996.302 | 996.73 | 1520.4 | 1521 | 1521.8 | 1522.3 | 1523.2
318.15 K | 990.784 | 991.318 | 991.875 | 992.445 | 993.001 | 1537 | 1537.7 | 1538.1 | 1539 | 1539.3

— the NIST ThermoML archive (doi:10.1016/j.tca.2014.03.004)
